In patent publication US11180484B2, “Pyrazole derivatives as plasma kallikrein inhibitors” (KALVISTA PHARMACEUTICALS LIMITED, priority 2016, dated 2021):
Converted amounts (≈) assume the structure as drawn. Read-outs that look alike come from different tables or passages of the source.

Tests used:
Human plasma kallikrein [1] = molecular target: T1, Human plasma kallikrein (Homo sapiens (Human), UniProt P03952); assay: Determination of the IC50 for plasma kallikrein; type: biochemical; conditions: 25° C., substrate H-DPro-Phe-Arg-AFC; read-out: IC50 (human PKal)
T1 sequence (P03952 391-638): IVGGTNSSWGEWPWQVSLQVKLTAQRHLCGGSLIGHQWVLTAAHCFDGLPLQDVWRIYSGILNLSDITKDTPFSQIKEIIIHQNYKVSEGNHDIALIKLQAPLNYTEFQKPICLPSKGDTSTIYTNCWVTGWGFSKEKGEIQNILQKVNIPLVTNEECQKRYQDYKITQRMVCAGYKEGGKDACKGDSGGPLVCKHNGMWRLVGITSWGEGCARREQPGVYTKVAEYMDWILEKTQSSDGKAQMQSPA
T1 sequence (P03952 20-390): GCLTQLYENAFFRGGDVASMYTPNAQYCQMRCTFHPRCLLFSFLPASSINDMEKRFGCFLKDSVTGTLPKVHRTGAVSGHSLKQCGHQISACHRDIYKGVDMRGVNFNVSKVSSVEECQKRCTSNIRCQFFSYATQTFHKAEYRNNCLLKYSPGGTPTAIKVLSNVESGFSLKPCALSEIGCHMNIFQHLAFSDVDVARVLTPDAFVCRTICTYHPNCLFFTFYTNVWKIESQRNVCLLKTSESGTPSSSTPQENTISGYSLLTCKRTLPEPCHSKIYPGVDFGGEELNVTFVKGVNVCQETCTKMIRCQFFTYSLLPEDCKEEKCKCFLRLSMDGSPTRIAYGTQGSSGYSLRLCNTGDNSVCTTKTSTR
Procedure: (§1) Human plasma kallikrein (Protogen) was incubated at 25° C. with the fluorogenic substrate H-DPro-Phe-Arg-AFC and various concentrations of the test compound. Residual enzyme activity (initial rate of reaction) was determined by measuring the change in […] at 410 nm and the IC50 value for the test compound was determined.

[2] = Intrinsic clearance in rat liver microsomes; type: in vitro ADME; conditions: rat liver microsomes 0.5 mg/mL, 5 μM test compound, 37° C.; read-out: rat liver microsome (Clint μL/min/mg protein)
Procedure: (§2) Rat or human liver microsomes (0.5 mg/mL; Corning) were incubated with 5 μM test compound at 37° C. on a shaking platform (150 rpm). Samples were taken at 0, 6, 12, 18, 24 and 60 min and test compound concentrations were determined by LCMS against a calibration curve.

[3] = Pharmacokinetics following a single oral dose in male Sprague-Dawley rats; type: in vivo; conditions: rat, single po dose (nominal 10 mg/kg; actual dose per row in column Dose po), 10% DMSO/10% cremophor/80% SWFI, plasma
Procedure: Pharmacokinetic studies of the compounds in Table 13 were performed to assess the pharmacokinetics following a single oral dose in male Sprague-Dawley rats. Two rats were given a single po dose of 5 mL/kg of a nominal 2 mg/mL (10 mg/kg) composition of test compound in vehicle. Following dosing, blood samples were collected over a period of 24 hours. Sample times were 5, 15 and 30 minutes then 1, 2, 4, 6, 8 and 12 hours. Following collection, blood samples were centrifuged and the plasma fraction analysed for concentration of test compound by LCMS.

trypsin = assay: Determination of enzyme selectivity: trypsin; type: biochemical, human; conditions: substrate at Km concentration
Procedure: (§3) Human serine protease enzymes plasmin, thrombin and trypsin were assayed for enzymatic activity using an appropriate fluorogenic substrate. Protease activity was measured by monitoring the accumulation of liberated fluorescence from the substrate over 5 minutes. The linear rate of fluorescence increase per minute was expressed as percentage (%) activity. The Km for the cleavage of each substrate was determined by standard transformation of the Michaelis-Menten equation.

[4] = Intrinsic clearance in human liver microsomes; type: in vitro ADME; conditions: human liver microsomes 0.5 mg/mL, 5 μM test compound, 37° C.; read-out: Human liver microsome (Clint μL/min/mg protein)
Procedure: as §2

[5] = Predicted plasma clearance (Clp), well-stirred model, human; type: in vitro ADME; conditions: percentage of hepatic blood flow
[6] = Plasma protein binding (PPB), rapid equilibrium dialysis, rat plasma; type: in vitro ADME; conditions: 5 μM test compound, dialysis 5 hrs at 37° C.
Human Factor XIIa = Human Factor XIIa (Homo sapiens (Human), UniProt P00748); assay: Factor XIIa inhibitory activity in vitro; type: biochemical; conditions: 25° C., substrate H-DPro-Phe-Arg-AFC; read-out: IC50 (human FXIIa)
Sequence of Human Factor XIIa (P00748 373-615): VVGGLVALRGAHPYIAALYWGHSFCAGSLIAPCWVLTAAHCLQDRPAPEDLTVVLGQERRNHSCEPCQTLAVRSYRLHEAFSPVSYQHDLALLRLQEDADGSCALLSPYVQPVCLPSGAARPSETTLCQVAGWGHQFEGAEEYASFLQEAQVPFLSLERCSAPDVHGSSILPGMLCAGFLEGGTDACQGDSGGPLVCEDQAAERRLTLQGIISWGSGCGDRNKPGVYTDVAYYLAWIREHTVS
Procedure: as §1, with “Factor XIIa (Enzyme Research Laboratories)” for “plasma kallikrein (Protogen)”

plasmin = plasmin (Homo sapiens (Human), UniProt P00747); assay: Determination of enzyme selectivity: plasmin; type: biochemical; conditions: substrate at Km concentration
Sequence of plasmin (P00747 581-810): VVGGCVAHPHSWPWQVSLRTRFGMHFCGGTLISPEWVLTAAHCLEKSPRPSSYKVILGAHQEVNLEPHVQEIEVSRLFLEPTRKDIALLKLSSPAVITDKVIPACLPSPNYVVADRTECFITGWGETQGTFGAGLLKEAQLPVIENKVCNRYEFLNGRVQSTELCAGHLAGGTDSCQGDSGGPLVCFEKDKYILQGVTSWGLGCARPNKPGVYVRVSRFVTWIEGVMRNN
Sequence of plasmin (P00747 97-580): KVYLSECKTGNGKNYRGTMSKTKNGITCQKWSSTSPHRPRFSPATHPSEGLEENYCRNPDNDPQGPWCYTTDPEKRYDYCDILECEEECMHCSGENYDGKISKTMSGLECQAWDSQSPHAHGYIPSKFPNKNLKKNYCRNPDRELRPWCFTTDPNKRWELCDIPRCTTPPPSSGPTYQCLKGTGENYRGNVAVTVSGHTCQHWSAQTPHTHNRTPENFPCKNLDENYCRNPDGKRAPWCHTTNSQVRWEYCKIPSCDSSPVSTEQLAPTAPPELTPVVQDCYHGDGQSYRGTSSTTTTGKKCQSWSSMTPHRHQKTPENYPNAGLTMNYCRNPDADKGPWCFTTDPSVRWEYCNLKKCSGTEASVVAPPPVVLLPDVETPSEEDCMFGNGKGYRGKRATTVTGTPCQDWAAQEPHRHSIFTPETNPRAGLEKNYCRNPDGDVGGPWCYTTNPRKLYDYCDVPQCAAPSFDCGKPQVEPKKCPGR
Procedure: as §3

Human KLK1 = Human KLK1 (Homo sapiens (Human), UniProt P06870); assay: Determination of the IC50 for KLK1; type: biochemical; conditions: 25° C., substrate H-DVal-Leu-Arg-AFC
Sequence of Human KLK1 (P06870 25-262): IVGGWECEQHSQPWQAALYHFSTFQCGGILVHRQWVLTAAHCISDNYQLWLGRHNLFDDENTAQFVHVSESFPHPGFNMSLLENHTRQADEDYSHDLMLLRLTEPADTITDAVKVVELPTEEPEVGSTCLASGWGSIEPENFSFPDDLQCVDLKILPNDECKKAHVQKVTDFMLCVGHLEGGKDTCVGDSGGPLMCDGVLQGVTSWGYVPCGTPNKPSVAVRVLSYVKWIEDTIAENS
Procedure: as §1, with “KLK1 (Callbiochem)” for “plasma kallikrein (Protogen)”, “H-DVal-Leu-Arg-AFC” for “H-DPro-Phe-Arg-AFC”

thrombin = thrombin (Homo sapiens (Human), UniProt P00734); assay: Determination of enzyme selectivity: thrombin; type: biochemical; conditions: substrate at Km concentration
Procedure: as §3

[7] = Predicted plasma clearance (Clp), well-stirred model, rat; type: in vitro ADME; conditions: percentage of hepatic blood flow
[8] = Plasma protein binding (PPB), rapid equilibrium dialysis, human plasma; type: in vitro ADME; conditions: 5 μM test compound, dialysis 5 hrs at 37° C.
[9] = In vitro permeability, Caco-2 model for oral absorption; type: in vitro ADME; conditions: human, apical to basolateral, 50 μM test compound, 37° C.
Method in brief: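 Caco-2 monolayers grown on collagen inserts for 3 days, with 50 μM compound added apically and incubated 1 hour at 37° C with shaking. Apical-to-basolateral transport measured by LCMS in both compartments. Monolayer integrity checked by TEER before and after, and by Lucifer Yellow flux.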

Human FXIa = Human FXIa (Homo sapiens (Human), UniProt P03951); assay: Determination of the % inhibition / IC50 for FXIa; type: biochemical; conditions: for inhibition at 40 µM: 40 μM test compound, read-out: % Inhibition @ 40 μM (human FXIa); for IC50: 25° C., substrate Z-Gly-Pro-Arg-AFC
Sequence of Human FXIa (P03951 388-625): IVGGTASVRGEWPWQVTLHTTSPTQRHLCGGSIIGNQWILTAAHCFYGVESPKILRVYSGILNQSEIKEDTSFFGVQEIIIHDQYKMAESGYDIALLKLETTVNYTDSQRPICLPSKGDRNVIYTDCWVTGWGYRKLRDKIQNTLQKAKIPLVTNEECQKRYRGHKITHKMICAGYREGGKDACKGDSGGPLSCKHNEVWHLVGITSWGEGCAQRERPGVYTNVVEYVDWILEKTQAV
Sequence of Human FXIa (P03951 19-387): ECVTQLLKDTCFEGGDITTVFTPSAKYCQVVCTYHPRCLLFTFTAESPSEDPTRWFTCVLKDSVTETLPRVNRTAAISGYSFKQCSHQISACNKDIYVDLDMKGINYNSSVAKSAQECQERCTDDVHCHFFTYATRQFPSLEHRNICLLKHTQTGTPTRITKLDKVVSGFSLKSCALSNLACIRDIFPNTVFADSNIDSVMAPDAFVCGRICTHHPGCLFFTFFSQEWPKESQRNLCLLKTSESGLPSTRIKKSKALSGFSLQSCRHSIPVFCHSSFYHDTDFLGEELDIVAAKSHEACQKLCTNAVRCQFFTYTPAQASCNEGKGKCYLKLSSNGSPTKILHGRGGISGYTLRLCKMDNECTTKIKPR
Procedure: FXIa inhibitory activity in vitro was determined using standard published methods (see e.g. Johansen et al., Int. J. Tiss. Reac. 1986, 8, 185; Shori et al., Biochem. Pharmacol., 1992, 43, 1209; Sturzebecher et al., Biol. Chem. Hoppe-Seyler, 1992, 373, 1025). […]

[10] = Solubility in water and 0.1N HCl (aq); type: physicochemical; conditions: thermodynamic from solid, incubated at 1 mg/mL, 37° C.
Procedure: Solubility was determined in water and 0.1N HCl (aq). Test compounds were incubated at 1 mg/mL for 24 hrs at 37° C. on a shaking platform (500 rpm). Samples were taken at 1, 4 and 24 hrs and centrifuged at 15,000 g for 10 min. Test compound concentration in the supernatant was determined by LCMS against a standard curve.

Human plasma kallikrein [11] = molecular target: T1, Human plasma kallikrein; assay: Determination of the Ki for plasma kallikrein (mixed-model inhibition); type: biochemical
[12] = simulated gastric fluid, 0.1N HCl (aq), read-out: Solubility 0.1N HCl (aq)
[13] = water, read-out: Solubility Water

| IC50 (Human plasma kallikrein [1]) | microsomal CLint at 5 μM [2] | IC50 (trypsin) | microsomal CLint at 5 μM [4] | Predicted in vivo human Clp (% LBF) [5] | fraction unbound at 5 h, 5 μM [6] | IC50 (Human Factor XIIa) | IC50 (plasmin) | IC50 (Human KLK1) | IC50 (thrombin) | Predicted in vivo rat Clp (% LBF) [7] | fraction unbound at 5 h, 5 μM [8] | Papp at 1 h, 50 μM [9] | IC50 (Human FXIa) | solubility [10, 12] | solubility [10, 13] | SMILES | Cmax [3] | Tmax [3] | inhibition at 40 µM (Human FXIa) | other results |
| --- | --- | --- | --- | --- | --- | --- | --- | --- | --- | --- | --- | --- | --- | --- | --- | --- | --- | --- | --- | --- |
| 6.7 nM | 22 µL/min/mg | > 40 µM | 20 µL/min/mg | 12 % LBF | 0.03 | > 40 µM | > 40 µM | > 40 µM | > 40 µM | 1 % LBF | 0.18 | 24 ×10⁻⁶ cm/s | > 40 µM | 940 µg/mL (≈ 1840 µM) | 290 µg/mL (≈ 569 µM) | COCc1nn(Cc2ccc(Cn3cc(F)ccc3=O)cc2)cc1C(=O)NCc1nccc(OC)c1F [Example 30, 1-({4-[(5-fluoro-2-oxopyridin-1-yl)methyl]phenyl}methyl)-N-[(3-fluoro-4-methoxypyridin-2-yl)methyl]-3-(methoxymethyl)pyrazole-4-carboxamide] | 756 ng/mL | 38 min | 7% | – |
| 0.7 nM | 72 µL/min/mg | > 40 µM | 32 µL/min/mg | 14 % LBF | 0.06 | > 4 µM | > 40 µM | > 4 µM | 39.2 µM | 12 % LBF | 0.1 | 6 ×10⁻⁶ cm/s | 10.6 µM | 46 µg/mL (≈ 84.4 µM) | 46 µg/mL (≈ 84.4 µM) | COCc1nn(Cc2ccc(Cn3ccccc3=O)cc2)cc1C(=O)NCc1cc(Cl)ccc1-n1cnnn1 [Example 72, N-{[5-chloro-2-(1,2,3,4-tetrazol-1-yl)phenyl]methyl}-3-(methoxymethyl)-1-({4-[(2-oxopyridin-1-yl)methyl]phenyl}methyl)pyrazole-4-carboxamide] | – | – | – | Ki (Human plasma kallikrein [11]; human plasma kallikrein, mixed-model inhibition equation): 0.16 nM; Alpha (Human plasma kallikrein [11]; parameter of the mixed-model equation indicating mechanism of inhibition): 6.0; inhibition at 12.7 µM (Human FXIa; 12.7 μM test compound): 53% |

| SMILES | IC50 (Human plasma kallikrein [1]) | microsomal CLint at 5 μM [2] | IC50 (trypsin) | microsomal CLint at 5 μM [4] | Predicted in vivo human Clp (% LBF) [5] | fraction unbound at 5 h, 5 μM [6] | IC50 (Human Factor XIIa) | IC50 (plasmin) | IC50 (Human KLK1) | IC50 (thrombin) | Predicted in vivo rat Clp (% LBF) [7] | fraction unbound at 5 h, 5 μM [8] | Papp at 1 h, 50 μM [9] | IC50 (Human FXIa) | solubility [10, 12] | solubility [10, 13] | Cmax [3] | Tmax [3] | inhibition at 40 µM (Human FXIa) | other results |
| --- | --- | --- | --- | --- | --- | --- | --- | --- | --- | --- | --- | --- | --- | --- | --- | --- | --- | --- | --- | --- |
| COc1ccnc(CNC(=O)c2cn(Cc3ccc(Cn4ccccc4=O)cc3)nc2C(F)(F)F)c1F [Example 6, N-[(3-fluoro-4-methoxypyridin-2-yl)methyl]-1-({4-[(2-oxopyridin-1-yl)methyl]phenyl}methyl)-3-(trifluoromethyl)pyrazole-4-carboxamide] | 3.2 nM | 30 µL/min/mg | > 40 µM | 42 µL/min/mg | 24 % LBF | 0.05 | > 4 µM | > 40 µM | > 4 µM | > 40 µM | 6 % LBF | 0.13 | 17 ×10⁻⁶ cm/s | > 40 µM | – | – | 1800 ng/mL | 30 min | 2% | – |
